These results are taken from paper PMC7504721, “Targeting the Initiator Protease of the Classical Pathway of Complement Using Fragment-Based Drug Discovery” (Molecules, 2020).

In assay [1] the target is T1, full-length C1r (Homo sapiens, UniProt P00736).
T1 construct: purchased Complement Technology (CompTech)
T1 sequence (P00736 18-463 limits assumed): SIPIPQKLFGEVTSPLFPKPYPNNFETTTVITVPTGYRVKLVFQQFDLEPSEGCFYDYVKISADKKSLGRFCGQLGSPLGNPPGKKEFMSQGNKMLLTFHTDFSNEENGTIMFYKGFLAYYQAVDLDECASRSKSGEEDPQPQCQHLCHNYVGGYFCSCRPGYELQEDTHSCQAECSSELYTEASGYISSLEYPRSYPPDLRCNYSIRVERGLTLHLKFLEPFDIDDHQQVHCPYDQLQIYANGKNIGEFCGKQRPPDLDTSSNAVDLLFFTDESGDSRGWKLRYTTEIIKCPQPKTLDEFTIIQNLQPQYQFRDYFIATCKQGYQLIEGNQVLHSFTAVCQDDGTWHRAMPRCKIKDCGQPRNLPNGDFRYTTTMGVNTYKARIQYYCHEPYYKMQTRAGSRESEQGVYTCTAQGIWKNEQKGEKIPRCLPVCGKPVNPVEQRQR
T1 sequence (P00736 464-705 limits assumed): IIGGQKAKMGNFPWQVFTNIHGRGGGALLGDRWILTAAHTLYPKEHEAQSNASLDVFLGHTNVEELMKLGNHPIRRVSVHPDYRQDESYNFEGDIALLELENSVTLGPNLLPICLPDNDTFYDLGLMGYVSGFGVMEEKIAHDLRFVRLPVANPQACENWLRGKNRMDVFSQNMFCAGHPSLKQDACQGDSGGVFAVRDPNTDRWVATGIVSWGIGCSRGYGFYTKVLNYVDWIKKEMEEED
The assay is described as follows: SPR dose-dependent binding, steady-state affinity. On the procedure:
All SPR experiments were carried out using a Biacore T200 (GE Healthcare, Chicago, IL, USA) at 25 °C. For all experiments, a running buffer (HBS-T) of 20 mM HEPES (pH 7.3), 140 mM NaCl, 0.005% (v/v) Tween-20, 5% DMSO (v/v) was used. For each experiment, DMSO calibration curves ranging from 4% to 5.5% DMSO (v/v) were collected at the beginning, end, and every 50 cycles throughout the duration of the experiment. All experiments were performed using HC1500M sensor chips (Xantec, Duesseldorf, Germany). In total, 10 sensor chips and 16 ligand immobilized surfaces were created over the course of this study (detailed in Table S2). In all cases, C1r proteins were immobilized onto chip surfaces using amine-coupling chemistry with 1-ethyl-3-(3-dimethylaminopropyl)-carbodiimide) (EDC), N-hydroxysuccinimide (NHS), followed by ethanolamine. Briefly, 100 mM of EDC and NHS were mixed and injected to activate the chip surface followed by the C1r protein ligand captured at a defined resonance unit (RU) level, followed by reaction quenching with 100 mM ethanolamine pH 8.5. Flow cell 1 was always used as a reference cell (no ligand), unless otherwise noted. All sensorgrams were reference and blank subtracted and analyzed using T200 Evaluation Software (GE Healthcare, Chicago, IL, USA).
To further evaluate hit compounds from the initial SPR screen, dose-dependent SPR binding assays were carried out. Three replicate flow cells were used containing both low and high immobilization densities of C1r (see Table S2). Hit compounds were tested for dose-dependent binding to full-length C1r using a compound concentration range of 7.8–500 µM. T200 evaluation software was used to calculate steady-state affinities for each compound by fitting sensorgrams from each variable concentration injection dataset using a 1:1 Langmuir model of interaction constrained by a theoretical experimental binding response based on the mol. wt. of each compound and derived as stated above. KD values are reported as the mean ± the standard deviation from at least three independent measurements.

The test system of assay [2] is classical pathway. The assay is described as follows: Classical pathway-specific ELISA-based complement inhibition assay (C4b deposition, IgM-coated plate, human serum). The format is biochemical. The following applies: single 500 µM concentration, triplicate, 1% normal human serum, unpaired t-test p < 0.05. On the procedure:
To carry out classical pathway ELISA-based inhibition assays, IgM was dissolved in coating buffer (100 mM Na2CO3/NaHCO3, pH 9.6) to a final concentration of 3 µg/mL and was dispensed into 96-well plates at 100 µL per well. Mannan was dissolved to 2 µg/mL and lipopolysaccharides (LPS) were dissolved to 10 µg/mL in coating buffer for use in lectin and alternative pathway inhibition assays, respectively. Immobilization was allowed to proceed overnight at 25 °C. The immobilization reagent was then removed, followed by three washes in washing buffer (50 mM Tris pH 8.0, 200 mM NaCl, 0.05% (v/v) Tween-20), and blocked using 100 µL of 1% (w/v) bovine serum albumin in PBS-T for 1 h at 37°C. Blocking buffer was removed and plates were washed three times in washing buffer. Next, 500 µM of each compound, 5% (v/v) DMSO, and 1% (v/v) normal human serum (Innovative Research) (final concentrations) were dissolved in classical/lectin pathway ELISA buffer (20 mM HEPES (pH 7.3), 0.1% (w/v) gelatin, 140 mM NaCl, 2 mM CaCl2, 0.5 mM MgCl2) and added to the IgM-coated plate for 1 h at 37 °C. For the lectin pathway-specific ELISAs shown in Figure 5D, we used C1q-depleted serum from CompTech at 2% (v/v) and thus the classical pathway assays for this analysis were also performed using serum from CompTech at 2% (v/v). For the alternative pathway, 20% (v/v) normal human serum (CompTech) (final concentration) and alternative pathway ELISA buffer (20 mM HEPES, (pH 7.5), 0.1% (w/v) gelatin, 140 mM NaCl, 2 mM CaCl2, 0.5 mM MgCl2) were used in place of classical/lectin pathway ELISA buffer. Plates were then washed three times in wash buffer and each well was filled with 100 µL of α-C4 (HYB 162-02, Santa Cruz Biotechnology) diluted 1:300 for classical and lectin pathway assays and 100 µL of C3b (WM-1, Sigma) diluted 1:300 for alternative pathway assays. Plates were again incubated at 37 °C for 1 h, washed three times, filled with 100 µL of HRP-conjugated goat-α-mouse secondary antibody (diluted 1:3000) (Thermo Scientific, Waltham, MA, USA), and rocked gently for 1 h at 25 °C. After three more washes, 50 µl of substrate (1-step Ultra TMB, Thermo Scientific, Waltham, MA, USA) was added to each well and rocked for 15 min in the dark at 25 °C. The reaction was stopped with 50 µL of 0.16 M sulfuric acid, and the plate was read at 450 nm using an EnSight multimode plate reader (Perkin-Elmer). Each column contained a positive control for full complement activity (5% (v/v) blank DMSO with 1% (v/v) serum) and a negative control for no complement activity (5% (v/v) blank DMSO and no serum). Positive controls (1% (v/v) serum, no inhibitor) were defined as 100% C4b or C3b signal whereas negative controls (no serum) were defined as 0% C4b or C3b signal for each column. Compounds that inhibited complement deposition relative to the control were then evaluated using the same assay setup across a two-fold variable concentration series for each compound (7.8–500 µM). […] All experiments were performed no less than three times.
Statistical analyses were performed using GraphPad Prism version 8. For complement inhibition assays, measures of statistical significance for single-dose experiments were assessed using unpaired Student’s t-tests compared to no inhibitor controls (pathway ELISAs) or non-binding control compounds (classical pathway ELISA). Statistical significance was defined as p < 0.05. Calculation of IC50 values from dose-dependent complement assays were obtained by non-linear regression analysis using a using an inhibitor vs. response model and with 95% confidence intervals reported. For non-linear regression analyses, the top and bottom of each curve were constrained to 100 and 0, respectively.

The Kd is the concentration at which binding is half-saturated. Read a low Kd as higher affinity. `CN1c2ccccc2N(C)C1c1ccccc1` [CMP-4] had a Kd in assay [1] (1:1 steady-state binding model, mean ± S.D. from three independent injection series, 25 °C) of 720 µM. In addition, in assay [1] (LE = ΔG/number of non-hydrogen atoms, ΔG = -RT x ln KD,C1r, using KD values of Fig. 3), the “Ligand efficiency (LE)” value was determined as 0.25. Further, the “inhibition of classical pathway (C4b deposition) relative to non-binding control compound” value in assay [2] is “statistically significant inhibitory activity”.
